Results published in PMC7588595, “Small-molecule active pharmaceutical ingredients of approved cancer therapeutics inhibit human aspartate/asparagine-β-hydroxylase” (Bioorganic & Medicinal Chemistry, 2020).

What follows are molecules tested against T1, human AspH (His6-AspH315–758) (Homo sapiens, UniProt Q12797) (assay: SPE-MS AspH inhibition assay (hFX-CP101-119 substrate hydroxylation)). Conditions: 50 nM His6-AspH315–758, 1 μM hFX-CP101–119, 100 μM LAA, 3 μM 2OG, 2 μM FAS, 50 mM HEPES pH 7.5, 20 °C; read-out: IC50.
T1 construct: N-Terminally His6-tagged human AspH315–758 (His6-AspH315–758) was produced in Escherichia coli BL21 (DE3) cells; made in house; host or cells: Escherichia coli BL21 (DE3), pET-28a(+) vector
T1 sequence (Q12797 315-758): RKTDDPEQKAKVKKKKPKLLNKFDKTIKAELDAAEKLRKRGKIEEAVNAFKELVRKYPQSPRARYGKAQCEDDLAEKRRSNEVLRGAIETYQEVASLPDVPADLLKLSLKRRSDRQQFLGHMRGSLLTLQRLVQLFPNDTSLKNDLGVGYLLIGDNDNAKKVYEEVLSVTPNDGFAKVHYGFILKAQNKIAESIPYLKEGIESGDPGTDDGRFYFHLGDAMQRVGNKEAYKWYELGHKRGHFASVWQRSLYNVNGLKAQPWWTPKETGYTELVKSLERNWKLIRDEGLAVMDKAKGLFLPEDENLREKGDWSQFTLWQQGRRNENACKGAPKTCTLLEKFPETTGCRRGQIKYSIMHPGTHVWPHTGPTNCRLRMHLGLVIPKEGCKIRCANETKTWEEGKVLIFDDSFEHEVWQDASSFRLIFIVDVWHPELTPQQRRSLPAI
Format: biochemical

Row | SMILES | IC50 [µM]
1 | COc1c/c(=C2\C=c3ccccc3=N2)[nH]/c1=C\c1[nH]c(C)cc1C.CS(=O)(=O)O [Obatoclax, reference compound] | 13.2 ± 3.1

Same assay, conditions: 20 μM fixed inhibitor concentration

Row | SMILES | remaining activity at 20 µM [%]
2 | COc1c/c(=C2\C=c3ccccc3=N2)[nH]/c1=C\c1[nH]c(C)cc1C.CS(=O)(=O)O [Obatoclax, reference compound] | ~20

Same assay, conditions: AspH-inhibitor screening, 384-well Plate 1

Row | SMILES | Plate 1 (% inhibition) [%]
3 | CCNC(=O)c1noc(-c2cc(C(C)C)c(O)cc2O)c1-c1ccc(CN2CCOCC2)cc1 [NVP-AUY922] | -7.77
4 | Cn1c(=O)n(-c2ccc(C(C)(C)C#N)cc2)c2c3cc(-c4cnc5ccccc5c4)ccc3ncc21 [NVP-BEZ235_Dactolisib] | 5.14
5 | CCN1CCN(c2ccc(Nc3cc(N(C)C(=O)Nc4c(Cl)c(OC)cc(OC)c4Cl)ncn3)cc2)CC1 [NVP-BGJ398] | -4.10
6 | Cc1c(C(=O)Nc2ccc(N3C[C@@H](C)O[C@@H](C)C3)nc2)cccc1-c1ccc(OC(F)(F)F)cc1.O=P(O)(O)O.O=P(O)(O)O [NVP-LDE225 (Diphosphate salt)] | -20.13
7 | COc1nc(N)nc2c1ncn2[C@@H]1O[C@H](CO)[C@@H](O)[C@@H]1O [Nelarabine] | -1.21
8 | Cc1cn(-c2cc(NC(=O)c3ccc(C)c(Nc4nccc(-c5cccnc5)n4)c3)cc(C(F)(F)F)c2)cn1 [Nilotinib] | -10.38
9 | CC1(C)NC(=O)N(c2ccc([N+](=O)[O-])c(C(F)(F)F)c2)C1=O [Nilutamide] | 4.05
10 | COc1ccc(C2=N[C@@H](c3ccc(Cl)cc3)[C@@H](c3ccc(Cl)cc3)N2C(=O)N2CCNC(=O)C2)c(OC(C)C)c1 [Nutlin-3] | -13.27
11 | COc1cccc2cc(-c3nc([C@H]4CC[C@H](C(=O)O)CC4)n4ncnc(N)c34)[nH]c12 [OSI-027] | -4.91
12 | C[C@]1(O)C[C@@H](c2nc(-c3ccc4ccc(-c5ccccc5)nc4c3)c3c(N)nccn32)C1 [OSI-906_Linsitinib] | 4.66
13 | O=C(c1cc(Cc2n[nH]c(=O)c3ccccc23)ccc1F)N1CCN(C(=O)C2CC2)CC1 [Olaparib] | 15.27
14 | COC(=O)C[C@](O)(CCCC(C)(C)O)C(=O)O[C@@H]1C(OC)=C[C@]23CCCN2CCc2cc4c(cc2[C@H]13)OCO4 [Omacetaxine mepesuccinate] | -1.21

Same assay, conditions: AspH-inhibitor screening, 384-well Plate 1, substrate conversion

Row | SMILES | Plate 1 (% conversion) [%]
15 | CCNC(=O)c1noc(-c2cc(C(C)C)c(O)cc2O)c1-c1ccc(CN2CCOCC2)cc1 [NVP-AUY922] | 53.34
16 | Cn1c(=O)n(-c2ccc(C(C)(C)C#N)cc2)c2c3cc(-c4cnc5ccccc5c4)ccc3ncc21 [NVP-BEZ235_Dactolisib] | 47.38
17 | CCN1CCN(c2ccc(Nc3cc(N(C)C(=O)Nc4c(Cl)c(OC)cc(OC)c4Cl)ncn3)cc2)CC1 [NVP-BGJ398] | 51.64
18 | Cc1c(C(=O)Nc2ccc(N3C[C@@H](C)O[C@@H](C)C3)nc2)cccc1-c1ccc(OC(F)(F)F)cc1.O=P(O)(O)O.O=P(O)(O)O [NVP-LDE225 (Diphosphate salt)] | 59.05
19 | COc1nc(N)nc2c1ncn2[C@@H]1O[C@H](CO)[C@@H](O)[C@@H]1O [Nelarabine] | 50.31
20 | Cc1cn(-c2cc(NC(=O)c3ccc(C)c(Nc4nccc(-c5cccnc5)n4)c3)cc(C(F)(F)F)c2)cn1 [Nilotinib] | 54.54
21 | CC1(C)NC(=O)N(c2ccc([N+](=O)[O-])c(C(F)(F)F)c2)C1=O [Nilutamide] | 47.88
22 | COc1ccc(C2=N[C@@H](c3ccc(Cl)cc3)[C@@H](c3ccc(Cl)cc3)N2C(=O)N2CCNC(=O)C2)c(OC(C)C)c1 [Nutlin-3] | 55.88
23 | COc1cccc2cc(-c3nc([C@H]4CC[C@H](C(=O)O)CC4)n4ncnc(N)c34)[nH]c12 [OSI-027] | 52.02
24 | C[C@]1(O)C[C@@H](c2nc(-c3ccc4ccc(-c5ccccc5)nc4c3)c3c(N)nccn32)C1 [OSI-906_Linsitinib] | 47.60
25 | O=C(c1cc(Cc2n[nH]c(=O)c3ccccc23)ccc1F)N1CCN(C(=O)C2CC2)CC1 [Olaparib] | 42.70
26 | COC(=O)C[C@](O)(CCCC(C)(C)O)C(=O)O[C@@H]1C(OC)=C[C@]23CCCN2CCc2cc4c(cc2[C@H]13)OCO4 [Omacetaxine mepesuccinate] | 50.31

Same assay, conditions: AspH-inhibitor screening, Plate 1-duplicate

Row | SMILES | Plate 1-duplicate (% inhibition) [%]
27 | CCNC(=O)c1noc(-c2cc(C(C)C)c(O)cc2O)c1-c1ccc(CN2CCOCC2)cc1 [NVP-AUY922] | -12.32
28 | Cn1c(=O)n(-c2ccc(C(C)(C)C#N)cc2)c2c3cc(-c4cnc5ccccc5c4)ccc3ncc21 [NVP-BEZ235_Dactolisib] | 3.83
29 | CCN1CCN(c2ccc(Nc3cc(N(C)C(=O)Nc4c(Cl)c(OC)cc(OC)c4Cl)ncn3)cc2)CC1 [NVP-BGJ398] | -20.49
30 | Cc1c(C(=O)Nc2ccc(N3C[C@@H](C)O[C@@H](C)C3)nc2)cccc1-c1ccc(OC(F)(F)F)cc1.O=P(O)(O)O.O=P(O)(O)O [NVP-LDE225 (Diphosphate salt)] | -19.69
31 | COc1nc(N)nc2c1ncn2[C@@H]1O[C@H](CO)[C@@H](O)[C@@H]1O [Nelarabine] | 1.44
32 | Cc1cn(-c2cc(NC(=O)c3ccc(C)c(Nc4nccc(-c5cccnc5)n4)c3)cc(C(F)(F)F)c2)cn1 [Nilotinib] | -7.89
33 | CC1(C)NC(=O)N(c2ccc([N+](=O)[O-])c(C(F)(F)F)c2)C1=O [Nilutamide] | 4.06
34 | COc1ccc(C2=N[C@@H](c3ccc(Cl)cc3)[C@@H](c3ccc(Cl)cc3)N2C(=O)N2CCNC(=O)C2)c(OC(C)C)c1 [Nutlin-3] | -5.84
35 | COc1cccc2cc(-c3nc([C@H]4CC[C@H](C(=O)O)CC4)n4ncnc(N)c34)[nH]c12 [OSI-027] | -2.62
36 | C[C@]1(O)C[C@@H](c2nc(-c3ccc4ccc(-c5ccccc5)nc4c3)c3c(N)nccn32)C1 [OSI-906_Linsitinib] | -12.38
37 | O=C(c1cc(Cc2n[nH]c(=O)c3ccccc23)ccc1F)N1CCN(C(=O)C2CC2)CC1 [Olaparib] | 14.14
38 | COC(=O)C[C@](O)(CCCC(C)(C)O)C(=O)O[C@@H]1C(OC)=C[C@]23CCCN2CCc2cc4c(cc2[C@H]13)OCO4 [Omacetaxine mepesuccinate] | 6.33

Same assay, conditions: AspH-inhibitor screening, Plate 1-duplicate, substrate conversion

Row | SMILES | Plate 1-duplicate (% conversion) [%]
39 | CCNC(=O)c1noc(-c2cc(C(C)C)c(O)cc2O)c1-c1ccc(CN2CCOCC2)cc1 [NVP-AUY922] | 58.15
40 | Cn1c(=O)n(-c2ccc(C(C)(C)C#N)cc2)c2c3cc(-c4cnc5ccccc5c4)ccc3ncc21 [NVP-BEZ235_Dactolisib] | 50.14
41 | CCN1CCN(c2ccc(Nc3cc(N(C)C(=O)Nc4c(Cl)c(OC)cc(OC)c4Cl)ncn3)cc2)CC1 [NVP-BGJ398] | 62.20
42 | Cc1c(C(=O)Nc2ccc(N3C[C@@H](C)O[C@@H](C)C3)nc2)cccc1-c1ccc(OC(F)(F)F)cc1.O=P(O)(O)O.O=P(O)(O)O [NVP-LDE225 (Diphosphate salt)] | 61.81
43 | COc1nc(N)nc2c1ncn2[C@@H]1O[C@H](CO)[C@@H](O)[C@@H]1O [Nelarabine] | 51.33
44 | Cc1cn(-c2cc(NC(=O)c3ccc(C)c(Nc4nccc(-c5cccnc5)n4)c3)cc(C(F)(F)F)c2)cn1 [Nilotinib] | 55.95
45 | CC1(C)NC(=O)N(c2ccc([N+](=O)[O-])c(C(F)(F)F)c2)C1=O [Nilutamide] | 50.03
46 | COc1ccc(C2=N[C@@H](c3ccc(Cl)cc3)[C@@H](c3ccc(Cl)cc3)N2C(=O)N2CCNC(=O)C2)c(OC(C)C)c1 [Nutlin-3] | 54.94
47 | COc1cccc2cc(-c3nc([C@H]4CC[C@H](C(=O)O)CC4)n4ncnc(N)c34)[nH]c12 [OSI-027] | 53.34
48 | C[C@]1(O)C[C@@H](c2nc(-c3ccc4ccc(-c5ccccc5)nc4c3)c3c(N)nccn32)C1 [OSI-906_Linsitinib] | 58.18
49 | O=C(c1cc(Cc2n[nH]c(=O)c3ccccc23)ccc1F)N1CCN(C(=O)C2CC2)CC1 [Olaparib] | 45.03
50 | COC(=O)C[C@](O)(CCCC(C)(C)O)C(=O)O[C@@H]1C(OC)=C[C@]23CCCN2CCc2cc4c(cc2[C@H]13)OCO4 [Omacetaxine mepesuccinate] | 48.90

Same assay, conditions: dose-response curves of SPE-MS AspH inhibition assay

Row | SMILES | Hill coefficient of AspH inhibition curves
51 | COc1c/c(=C2\C=c3ccccc3=N2)[nH]/c1=C\c1[nH]c(C)cc1C.CS(=O)(=O)O [Obatoclax, reference compound] | < -2.0

Same assay, conditions: read-out: IC50 at 10 μM substrate; 10 μM hFX-CP101–119 and 10 μM 2OG instead of 1 μM hFX-CP101–119 and 3 μM 2OG

Row | SMILES | IC50 [µM]
52 | COc1c/c(=C2\C=c3ccccc3=N2)[nH]/c1=C\c1[nH]c(C)cc1C.CS(=O)(=O)O [Obatoclax, reference compound] | 9.44 ± 3.16

Same assay, conditions: read-out: IC50 at 20 μM Fe(II); 20 μM Fe(II) instead of 2 μM Fe(II)

Row | SMILES | IC50 [µM]
53 | COc1c/c(=C2\C=c3ccccc3=N2)[nH]/c1=C\c1[nH]c(C)cc1C.CS(=O)(=O)O [Obatoclax, reference compound] | 11.9 ± 0.8

Same assay, conditions: read-out: IC50 at 200 μM 2OG; 200 μM 2OG instead of 3 μM 2OG

Row | SMILES | IC50 [µM]
54 | COc1c/c(=C2\C=c3ccccc3=N2)[nH]/c1=C\c1[nH]c(C)cc1C.CS(=O)(=O)O [Obatoclax, reference compound] | 16.4 ± 4.6
